Results: patent US20100310544A1, “COMPOSITION COMPRISING CALCIUM IONS AND AT LEAST ONE PROTEOLYTIC ENZYME FOR USE IN THE IN VITRO AND IN VIVO REGENERATION OF CUTANEOUS AND CONNECTIVE TISSUES” (MEDEVICE S.P.A., priority 2007, published 2010)

Tested on: cutis and subcutis
Experiment: In vivo clinical studies II, Q-BASE-CREAM, regeneration and repairing of cutis and subcutis
Set-up: species or system human
Settings: Case 2, surgical suture dehiscence; before Q-BASE-CREAM
Description: A clinical study was performed, which was designed to assess the therapeutic effectiveness of the product designated as Q-BASE-CREAM in the regeneration and repairing of cutis and subcutis.
During the period comprised from March to May 2007, a mixed group of volunteers consisting of human (two women and one person) and veterinary (two dogs) patients were included in the clinical study.

povidone-iodine
change of the lesion after 7 days of previous local therapy: no changes in the lesion occurred
